Data: patent US11078193B2 (priority 2014, dated 2021)

Experiments:
[1] = ATP based toxicity assay (ATPlite), HepG2 cell line; conditions: human, HepG2 cells, ATPlite (ATP levels)
Description: Alternatively, cytotoxicity was determined via an ATP-assay: The ATPlite kit from Perkin Elmer was used to assess compound cytotoxicity on the HepG2 cell line by determination of the ATP (adenosine triphosphate) levels. ATP is a marker for functional integrity and cell viability, because it is present in all metabolically active cells and any form of cell injury will result in a rapid decline in cellular ATP concentration. After compound incubation, 1 volume of ATPlite solution was added to the cells and the luminescence signal was measured.

HBV [2] = assay: anti HBV activity, HepG2.117 inducibly HBV producing cell line (Tet-off), intracellular HBV DNA by realtime PCR; type: cell-based; conditions: Hepatitis B virus, 72 h, HepG2.117 cells, 3 days of treatment
[3] = Cytotoxicity, HepG2 cells, Resazurin assay; type: cell-based; conditions: human
HBV [4] = assay: anti-HBV activity, HepG2.2.15 stable transfected cell line, HBV DNA from secreted virions by realtime PCR; type: cell-based; conditions: Hepatitis B virus, 144 h, HepG2.2.15 cells, 6 days of treatment

SMILES | CC50 at 4 days [1] | EC50 (HBV [2]) | CC50 at 4 days [3] | EC50 (HBV [4])
C[C@@H](NS(=O)(=O)c1cn(C)c(C(=O)Nc2ccnc(C#N)c2)c1F)C(F)(F)F [Compound 18, N-(2-Cyanopyridin-4-yl)-3-fluoro-1-methyl-4-{[(1R)-2,2,2-trifluoro-1-methylethyl]sulfamoyl}-1H-pyrrole-2-carboxamide] | > 25000 nM | 30 nM | > 25000 nM | 30 nM
C[C@@H](NS(=O)(=O)c1cn(C)c(C(=O)Nc2ccnc(Cl)c2)c1F)C(F)(F)F [Compound 20, N-(2-chloro-4-pyridyl)-3-fluoro-1-methyl-[[(1R)-2,2,2-trifluoro-1-methyl-ethyl]sulfamoyl]pyrrole-2-carboxamide] | > 25000 nM | 20 nM | > 25000 nM | 30 nM
C[C@@H](NS(=O)(=O)c1cn(C)c(C(=O)Nc2ccnc(Br)c2)c1F)C(F)(F)F [Compound 23, N-(2-bromo-4-pyridyl)-3-fluoro-1-methyl-4-[[(1R)-2,2,2-trifluoro-1-methyl-ethyl]sulfamoyl]pyrrole-2-carboxamide] | > 25000 nM | 10 nM | > 25000 nM | 10 nM
C[C@@H](NS(=O)(=O)c1cn(C)c(C(=O)Nc2ccnc(F)c2)c1F)C(F)(F)F [Compound 24, 3-fluoro-N-(2-fluoro-4-pyridyl)-1-methyl-4-[[(1R)-2,2,2-trifluoro-1-methyl-ethyl]sulfamoyl]pyrrole-2-carboxamide] | > 25000 nM | 40 nM | > 25000 nM | 40 nM
Cc1c(S(=O)(=O)N[C@H](C)C(F)(F)F)c(Cl)c(C(=O)Nc2ccnc(C#N)c2)n1C [Compound 32, 3-chloro-N-(2-cyano-4-pyridyl)-1,5-dimethyl-4-[[(1R)-2,2,2-trifluoro-1-methyl-ethyl]sulfamoyl]pyrrole-2-carboxamide] | > 25000 nM | 20 nM | > 25000 nM | 20 nM
C[C@@H](NS(=O)(=O)c1cn(C)c(C(=O)Nc2ccnc(Br)c2)c1Cl)C(F)(F)F [Compound 106, N-(2-bromo-4-pyridyl)-3-chloro-1-methyl-4-[[(1R)-2,2,2-trifluoro-1-methyl-ethyl]sulfamoyl]pyrrole-2-carboxamide] | > 25000 nM | 20 nM | > 25000 nM | 
Cn1cc(S(=O)(=O)NC2(C(F)(F)F)CCC2)c(Cl)c1C(=O)Nc1ccnc(C(F)F)c1 [Compound 108, 3-chloro-N-[2-(difluoromethyl)-4-pyridyl]-1-methyl-4-[[1-(trifluoromethyl)cyclobutyl]sulfamoyl]pyrrole-2-carboxamide] | > 25000 nM | 20 nM | > 25000 nM | 
Cn1cc(S(=O)(=O)NC2(C)CC(F)(F)C2)c(Cl)c1C(=O)Nc1ccnc(Br)c1 [Compound 113, N-(2-bromo-4-pyridyl)-3-chloro-4-[(3,3-difluoro-1-methyl-cyclobutyl)sulfamoyl]-1-methyl-pyrrole-2-carboxamide] | 23700 nM | 10 nM | > 25000 nM | 
Cn1cc(S(=O)(=O)NC2(C)CC(F)(F)C2)c(Cl)c1C(=O)Nc1cc(F)nc(F)c1 [Compound 115, 3-chloro-4-[(3,3-difluoro-1-methyl-cyclobutyl)sulfamoyl]-N-(2,6-difluoro-4-pyridyl)-1-methyl-pyrrole-2-carboxamide] | > 25000 nM | 6 nM | > 25000 nM | 
Cn1cc(S(=O)(=O)NC2(C)CC(F)(F)C2)c(F)c1C(=O)Nc1cc(F)nc(F)c1 [Compound 132, 4-[(3,3-difluoro-1-methyl-cyclobutyl)sulfamoyl]-N-(2,6-difluoro-4-pyridyl)-3-fluoro-1-methyl-pyrrole-2-carboxamide] | > 25000 nM | 10 nM | > 25000 nM | 
Cc1cc(NC(=O)c2c(F)c(S(=O)(=O)NC3(C)CC(F)(F)C3)cn2C)cc(F)n1 [Compound 134, 4-[(3,3-difluoro-1-methyl-cyclobutyl)sulfamoyl]-3-fluoro-N-(2-fluoro-6-methyl-4-pyridyl)-1-methyl-pyrrole-2-carboxamide] | > 25000 nM | 10 nM | > 25000 nM | 
C[C@@H](NS(=O)(=O)c1cn(C)c(C(=O)Nc2ccnc(Br)c2F)c1Cl)C(F)(F)F [Compound 139, N-(2-bromo-3-fluoro-4-pyridyl)-3-chloro-1-methyl-4-[[(1R)-2,2,2-trifluoro-1-methyl-ethyl]sulfamoyl]pyrrole-2-carboxamide] | > 25000 nM | 20 nM | > 25000 nM | 
Cc1cc(NC(=O)c2c(Cl)c(S(=O)(=O)N[C@H](C)C(C)(F)F)cn2C)cc(F)n1 [Compound 146, 3-chloro-4-[[(1R)-2,2-difluoro-1-methyl-propyl]sulfamoyl]-N-(2-fluoro-6-methyl-4-pyridyl)-1-methyl-pyrrole-2-carboxamide] | > 25000 nM | 30 nM | > 25000 nM | 
Cc1cc(NC(=O)c2c(F)c(S(=O)(=O)N[C@H](C)C(F)(F)F)cn2C)cc(Br)n1 [Compound 154, N-(2-bromo-6-methyl-4-pyridyl)-3-fluoro-1-methyl-4-[[(1R)-2,2,2-trifluoro-1-methyl-ethyl]sulfamoyl]pyrrole-2-carboxamide] | > 25000 nM | 80 nM | > 25000 nM | 
Cc1cc(NC(=O)c2c(F)c(S(=O)(=O)N[C@H](C)C(C)(F)F)cn2C)cc(Cl)n1 [Compound 158, N-(2-chloro-6-methyl-4-pyridyl)-4-[[(1R)-2,2-difluoro-1-methyl-propyl]sulfamoyl]-3-fluoro-1-methyl-pyrrole-2-carboxamide] | > 25000 nM | 50 nM | > 25000 nM | 
Cc1cc(NC(=O)c2c(F)c(S(=O)(=O)N[C@H](C)C(C)(F)F)cn2C)cc(F)n1 [Compound 160, 4-[[(1R)-2,2-difluoro-1-methyl-propyl]sulfamoyl]-3-fluoro-N-(2-fluoro-6-methyl-4-pyridyl)-1-methyl-pyrrole-2-carboxamide] | > 25000 nM | 10 nM | > 25000 nM | 
Cc1cc(NC(=O)c2c(F)c(S(=O)(=O)NC3(C(F)(F)F)CCC3)cn2C)cc(F)n1 [Compound 172, 3-fluoro-N-(2-fluoro-6-methyl-4-pyridyl)-1-methyl-4-[[1-(trifluoromethyl)cyclobutyl]sulfamoyl]pyrrole-2-carboxamide] | > 25000 nM | 10 nM | > 25000 nM | 
Cn1cc(S(=O)(=O)NC2(C(F)(F)F)CC2)c(F)c1C(=O)Nc1ccnc(Cl)c1 [Compound 175, N-(2-chloro-4-pyridyl)-3-fluoro-1-methyl-4-[[1-(trifluoromethyl)cyclopropyl]sulfamoyl]pyrrole-2-carboxamide] | > 25000 nM | 20 nM |  | 120 nM
C[C@@H](NS(=O)(=O)c1cn(C)c(C(=O)Nc2ccnc(Br)c2F)c1F)C(C)(F)F [Compound 176, N-(2-bromo-3-fluoro-4-pyridyl)-4-[[(1R)-2,2-difluoro-1-methyl-propyl]sulfamoyl]-3-fluoro-1-methyl-pyrrole-2-carboxamide] | > 25000 nM | 3 nM |  | < 100 nM
Cc1cc(NC(=O)c2c(Cl)c(S(=O)(=O)N[C@H](C)C(F)(F)F)cn2C)cc(C(F)F)n1 [Compound 177, 3-chloro-N-[2-(difluoromethyl)-6-methyl-4-pyridyl]-1-methyl-[[(1R)-2,2,2-trifluoro-1-methyl-ethyl]sulfamoyl]pyrrole-2-carboxamide] | > 25000 nM | 100 nM |  | 260 nM
Cc1cc(NC(=O)c2c(F)c(S(=O)(=O)N[C@H](C)C(C)(F)F)cn2C)cc(C(F)F)n1 [Compound 178, N-[2-(difluoromethyl)-6-methyl-4-pyridyl]-4-[[(1R)-2,2-difluoro-1-methyl-propyl]sulfamoyl]-3-fluoro-1-methyl-pyrrole-2-carboxamide] | > 25000 nM | 50 nM |  | 240 nM
Cc1cc(NC(=O)c2c(F)c(S(=O)(=O)N[C@H](C)C(F)(F)F)cn2C)cc(C(F)F)n1 [Compound 179, N-[2-(difluoromethyl)-6-methyl-4-pyridyl]-3-fluoro-1-methyl-[[(1R)-2,2,2-trifluoro-1-methyl-ethyl]sulfamoyl]pyrrole-2-carboxamide] | > 25000 nM | 70 nM |  | 210 nM
C[C@@H](NS(=O)(=O)c1cn(C)c(C(=O)Nc2cc(F)nc(F)c2Cl)c1Cl)C(F)(F)F [Compound 185, 3-chloro-N-(3-chloro-2,6-difluoro-4-pyridyl)-1-methyl-4-[[(1R)-2,2,2-trifluoro-1-methyl-ethyl]sulfamoyl]pyrrole-2-carboxamide] | > 25000 nM | 740 nM | > 25000 nM | 
Cc1c(S(=O)(=O)N[C@H](C)C(F)(F)F)c(F)c(C(=O)Nc2cc(F)nc(F)c2)n1C [Compound 199, N-(2,6-difluoro-4-pyridyl)-3-fluoro-1,5-dimethyl-4-[[(1R)-2,2,2-trifluoro-1-methyl-ethyl]sulfamoyl]pyrrole-2-carboxamide] | > 25000 nM | 6 nM |  | < 100 nM
Cc1c(S(=O)(=O)N[C@H](C)C(F)(F)F)c(F)c(C(=O)Nc2ccnc(Cl)c2)n1C [Compound 200, N-(2-chloro-4-pyridyl)-3-fluoro-1,5-dimethyl-4-[[(1R)-2,2,2-trifluoro-1-methyl-ethyl]sulfamoyl]pyrrole-2-carboxamide] | > 25000 nM | 20 nM |  | 110 nM
